Source: patent US5441948A, “1,3,4-benzotraizepin-5(4H)-one derivatives and process for the preparation thereof” (priority 1992, dated 1995)

Assays:
[1] = test system: vasopressin-induced ST elevation; assay: Inhibitory effect on the vasopressin-induced ST elevation in anaesthetized rats; format: in vivo, CFY male rats; details: vasopressin 3 IE/kg i.v.
Description: II. Inhibitory effect on the vasopressin-induced ST elevation in anaesthetized rats
The studies were performed in 200-250 g CFY male rats. Animals were anaesthetized with intraperitoneally administered urethane ([…]), then subjected to ECG, using limb leads. Coronary spasm, reflected by elevated ST deflection in the ECG recordings, was induced by treating the rats with 3 IE/kg of vasopressin intravenously. […] Methods. 5, 325-336 (1981)].
Dose of compounds of the invention: 1 mg/kg, i.v. except where appears

[2] = test system: isolated canine Purkinje fibres; assay: Intracellular electrophysiology, action potential duration (50% and 90% repolarization) in isolated canine Purkinje fibres; format: cell-based, canine (mongrel dogs)
Description: I. Intracellular electrophysiological studies on isolated canine Purkinje fibres: study of the characteristics and the duration of the action potential
Mongrel dogs of both sexes, weighing 8-22 kg, were anaesthetized with intravenously administered sodium pentobarbital, 30 mg/kg (Nembutal®).The superficial Purkinje fibres were excised from the heart and placed in plastic organ bath containing Tyrode's solution ([…] of Na^+, 4.0 mM of K^+, 133.3 mM of Cl^-, 2.0 mM of Ca^2+, 22.0 mM of HCO3 -, 0.9 mM of H2 PO4^+, 0.7 mM of Mg^2+, 5.0 mM of glucose) The perfusate (Tyrode's solution) was gassed with a mixture of 95% of O^2 and 5% of CO2. Temperature of the organ bath was 37.0°±0.5° C. pH=7.3±0.5. Purkinje fibres were incubated for 1-2 hours in order to avoid spontaneous changes in the duration of action potential, to be observed often for a short period after the preparation completed. Conventional glass microelectrode method was used to measure intracellular action potentials. The electrodes were filled with 3M KCl solution, resistance was 5-15 Mohm. Microelectrodes were connected to high input-resistance capacity-neutralizing amplifier through a Ag-AgCl connection. Another electrode was placed in the organ bath as a reference electrode. Maximum rate of depolarization (Vmax) was measured with an electronic differentiating unit. The intracellular pulses were visualized on a two-channel oscilloscope by a microcomputer in on-line mode. The following parameters were measured: resting potential, action potential amplitude, 50% and 90% repolarizations, maximum rate of depolarization. Preparations were stimulated through silver electrodes insulated with PTFE. Parameters of stimuli were rectangular pulses of 1 ms duration with an intensity of two times the threshold. The basal stimulation periods were changed between 200 and 1000 msec. [Varre et al., J. Cardiovasc. Pharmacol. 11, 251 (1988)].
The applied dose of the compounds according to the invention is 10 mg/L.
Concentration of Pinacidil: 1 mg/L
Concentration of Nicorandil: 5 mg/L
APD: action potential duration

[3] = result in words, characteristic of drugs with merely K+-channel-activating activity; cited from earlier work
[4] = 5.0 mg/kg i.v. pretreatment (*)

With CC(NC(N)=NC1=Nc2ccccc2C(=O)N(C)N1)C(C)(C)C (stereo not drawn) [Example 17, 2-[amino-(3,3-dimethyl-2-butylamino)-methyleneamino]-4-methyl-3,4-dihydro-1,3,4-benzotriazepin-5(4H)-one] the “Inhibition (%) of vasopressin-induced ST elevation” value (from here on “Inhibition (%)”) ([1]; 1 mg/kg, i.v. pretreatment) was -68%, the “ADD90 Change (%)” value ([2]; 10 mg/L) was -13% and the “ARD50 Change (%)” value ([2]; 10 mg/L) was -42%. For the same compound, the ADD90 after treatment ([2]; 10 mg/L) was 221 ms and the ARD50 after treatment ([2]; 10 mg/L) was 91 ms.

For CC(N/C(=N\C#N)Nc1ccncc1)C(C)(C)C (stereo not drawn) [Pinacidil, reference compound], the unpleasant side-effects [3] is listed as “tachycardia and the so-called "first dose effect"”, the “ADD90 Change (%)” value ([2]; Pinacidil 1 mg/L) is listed as -45% and the “ARD50 Change (%)” value ([2]; Pinacidil 1 mg/L) is listed as -61%. For the same compound, the ADD90 after treatment ([2]; Pinacidil 1 mg/L) was 141 ms and the ARD50 after treatment ([2]; Pinacidil 1 mg/L) was 71 ms.

For COc1cc(C(=O)OCCCN2C(N=C(N)N3CCCNCC3)=Nc3ccccc3C(=O)N2C)cc(OC)c1OC [Example 19, 2-[amino-(1-homopiperazinyl)-methyleneamino]-3-[3-(3,4,5-trimethoxybenzoyloxy)-1-propyl]-4-methyl-3,4-dihydro-1,3,4-benzotriazepin-5(4H)-one], the “Inhibition (%)” value ([1]; 1 mg/kg, i.v. pretreatment) was -59%, the “ADD90 Change (%)” value ([2]; 10 mg/L) was -9% and the “ARD50 Change (%)” value ([2]; 10 mg/L) was -25%. It also gave an ADD90 after treatment ([2]; 10 mg/L) of 237 ms and an ARD50 after treatment ([2]; 10 mg/L) of 121 ms.

For CN1C(=O)c2ccccc2N=C(NCc2cccnc2)N1CCCN1CCN(c2ccccc2)CC1 [Example 20, 2-(3-pyridylmethylamino)-3-[3-(4-phenyl-1-piperazinyl)-1-propyl]-4-methyl-3,4-dihydro-1,3,4-benzotriazepin-5 (4H)-one], the “ADD90 Change (%)” value ([2]; 10 mg/L) was -5%, the “ARD50 Change (%)” value ([2]; 10 mg/L) was -42% and the ADD90 after treatment ([2]; 10 mg/L) was 227 ms. For the same compound, the ARD50 after treatment ([2]; 10 mg/L) was 79 ms.

In the case of O=C(NCCO[N+](=O)[O-])c1cccnc1 [Nicorandil, reference compound], the “Inhibition (%)” value ([1]; 1 mg/kg, i.v. pretreatment) is reported as -12%, the “Inhibition (%)” value [1, 4] is reported as -60% and the “ADD90 Change (%)” value ([2]; Nicorandil 5 mg/L) is reported as -32%. The “ARD50 Change (%)” value ([2]; Nicorandil 5 mg/L) was -41%, the ADD90 after treatment ([2]; Nicorandil 5 mg/L) was 179 ms and the ARD50 after treatment ([2]; Nicorandil 5 mg/L) was 107 ms.

With CN1C(=O)c2ccccc2N=C(N=C(N)N2CCCCC2)N1Cc1ccccn1 [Example 22, 2-[amino-(1-piperidinyl)-methyleneamino]-3-(2-pyridylmethyl)-4-methyl-3,4-dihydro-1,3,4-benzotriazepin-5(4H)-one] the “Inhibition (%)” value ([1]; 1 mg/kg, i.v. pretreatment) was -59%, the “ADD90 Change (%)” value ([2]; 10 mg/L) was -10% and the “ARD50 Change (%)” value ([2]; 10 mg/L) was -39%. The ADD90 after treatment ([2]; 10 mg/L) was 219 ms and the ARD50 after treatment ([2]; 10 mg/L) was 97 ms.

For CC(NC1=Nc2ccccc2C(=O)N(C)N1)C(C)(C)C (stereo not drawn) [Example 18, 2-(3,3-dimethyl-2-butylamino)-4-methyl-3,4-dihydro-1,3,4-benzotriazepin-5(4H)-one], the “ADD90 Change (%)” value ([2]; 10 mg/L) was -15%, the “ARD50 Change (%)” value ([2]; 10 mg/L) was -29% and the ADD90 after treatment ([2]; 10 mg/L) was 213 ms. The ARD50 after treatment ([2]; 10 mg/L) was 111 ms.

For CN1NC(N=C(N)N2CCCCC2)=Nc2ccccc2C1=O [Example 4, 2-[Amino-(1-piperidinyl)-methyleneamino]-4-methyl-3,4-dihydro-4H-1,3,4-benzotriazepin-5-one], the “Inhibition (%)” value [1, 4] was -36%, the “ADD90 Change (%)” value ([2]; 10 mg/L) was -10% and the “ARD50 Change (%)” value ([2]; 10 mg/L) was -33%. It also gave an ADD90 after treatment ([2]; 10 mg/L) of 226 ms and an ARD50 after treatment ([2]; 10 mg/L) of 113 ms.
